Experimental findings from patent US20120046272A1, “Novel Therapeutic Compounds” (GRUNENTHAL GMBH, priority 2010, published 2012) are described below.

This test has as its system mice. The experiment in a line: Hot plate model of acute thermal pain. The test is classed as in vivo. The following applies: hot plate 46.0° C.±1.0° C, tested prior to and 30 min after drug administration, cut-off 120 s. On the procedure:
The device consisted of an electrically heated surface and an open plexiglass tube (34 cm high×44 cm diameter), as per the hot plate test adapted from Eddy and Leimbach (1953); The animals were confined to the heated surface. The temperature was kept at 46.0° C.±1.0° C. Mice were placed on the hot plate, and the time, recorded with a stopwatch, until either licking of the hind paw or jumping were initiated. Animals were tested prior to and 30 min after drug administration. The pre-drug latencies were between 17 and 45 s. The maximum possible effect (MPE) was defined as the lack of a nociceptive response during the exposure to the heat stimulus. The percentage of MPE was calculated according to the formula: [(T1−T0)/(T2−T0)]×100, where T0 and T1 were the latencies obtained before and after drug injection, and T2 was the cut-off time (120 s).
Data are expressed as mean (±SEM) % MPE. p<0.05 versus vehicle control.

Take `CCC(c1cccc(OC(=O)CC2(CN)CCCCC2)c1)C(C)CN(C)C` (centres unmarked) [Compound of Formula 25]: the “antinociception in hot plate test (% MPE)” value is “induced dose-dependent antinociception and reached full efficacy”.

With `CN1CC[C@]23c4c5ccc(O)c4O[C@H]2[C@@H](O)C=C[C@H]3[C@H]1C5` [morphine], the “antinociception in hot plate test (% MPE)” value is “induced dose-dependent antinociception and reached full efficacy”.
